According to patent US20170334899A1, “AMINO-SUBSTITUTED ISOTHIAZOLES” (Bayer Pharma Aktiengesellschaft, priority 2014, published 2017):

Assays:
CDK2/CycE = target: T1, CDK2/CycE (Homo sapiens, UniProt P24941); assay: CDK2/CycE kinase assay (TR-FRET); assay type: biochemical; details: avg, read-out: CDK2 avg (IC50 [mol/l])
T1 construct: GST; purchased ProQinase GmbH (Freiburg, Germany); host or cells: insect cells (Sf9)
In short: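 Read-out is a TR-FRET 665/620 nm emission ratio from EDTA-stopped reactions detected with anti-pRB(pSer807/pSer811), Eu-labelled anti-mouse IgG and streptavidin-XL665, scaled between no-enzyme and uninhibited wells. Reaction: Sf9-expressed GST-CDK2/GST-CycE, 15 min compound preincubation, 10 μM ATP, 0.75 μM biotin-peptide, 25 min, 22° C., pH 8.0 Tris buffer.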

[1] = target: T2, catalytic domain of human Bub1 (amino acids 704-1085) (Homo sapiens, UniProt O43683); assay: Bub1 kinase assay (TR-FRET); assay type: biochemical; details: 10 μM ATP, avg, read-out: Bub1 avg (IC50 [mol/l])
T2 construct: catalytic domain of human Bub1 (amino acids 704-1085); His6 (N); made in house; host or cells: insect cells (Hi5)
T2 sequence (O43683 704-1085): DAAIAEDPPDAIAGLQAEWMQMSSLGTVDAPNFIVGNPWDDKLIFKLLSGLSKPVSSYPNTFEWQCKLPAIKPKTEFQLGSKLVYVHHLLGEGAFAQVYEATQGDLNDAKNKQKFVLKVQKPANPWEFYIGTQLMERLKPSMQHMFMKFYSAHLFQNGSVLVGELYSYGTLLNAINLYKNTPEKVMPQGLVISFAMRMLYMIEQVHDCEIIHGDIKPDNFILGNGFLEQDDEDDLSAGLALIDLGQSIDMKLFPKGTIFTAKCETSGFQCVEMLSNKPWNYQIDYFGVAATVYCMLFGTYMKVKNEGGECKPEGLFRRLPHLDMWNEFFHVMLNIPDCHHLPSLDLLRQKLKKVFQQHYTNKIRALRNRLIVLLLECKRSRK
In short: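 Readout is the 665/620 nm TR-FRET ratio from anti-phosphoserine antibody, Eu-labelled anti-mouse IgG and streptavidin-XL665, scaled between no-enzyme and uninhibited controls. Reaction: 1 μM biotinylated peptide, 10 μM ATP, 60 min, 22 °C, after 15 min compound preincubation with His6-Bub1 (704-1085, insect-expressed, ~200 ng/ml).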

Row | Structure (SMILES) | IC50 (CDK2/CycE) [µM] | IC50 [1] [µM]
1 | Cc1nsc(Nc2cnc(C(F)(F)F)cn2)c1C(=O)Nc1ccc(OCC2CCCN(CC(F)F)C2)nc1 (stereo not drawn) [Example 327, N-(6-{[1-(2,2-difluoroethyl)piperidin-3-yl]methoxy}pyridin-3-yl)-3-methyl-5-{[5-(trifluoromethyl)pyrazin-2-yl]amino}-1,2-thiazole-4-carboxamide] | ≥ 20 | ≥ 20
2 | Cc1nsc(Nc2cnc(C(F)(F)F)cn2)c1C(=O)Nc1ccc(OC2CCCN(CC(F)F)C2)nc1 (stereo not drawn) [Example 330, N-(6-{[1-(2,2-difluoroethyl)piperidin-3-yl]oxy}pyridin-3-yl)-3-methyl-5-{[5-(trifluoromethyl)pyrazin-2-yl]amino}-1,2-thiazole-4-carboxamide] | ≥ 20 | ≥ 20
3 | Cc1nsc(Nc2cnc(C(F)(F)F)cn2)c1C(=O)Nc1ccc(F)c(OCC2CCCN(CCF)C2)c1 (stereo not drawn) [Example 336, N-(4-fluoro-3-{[1-(2-fluoroethyl)piperidin-3-yl]methoxy}phenyl)-3-methyl-5-{[5-(trifluoromethyl)pyrazin-2-yl]amino}-1,2-thiazole-4-carboxamide] | ≥ 20 | ≥ 20
4 | Cc1nsc(Nc2cnc(C(F)(F)F)cn2)c1C(=O)Nc1ccc(F)c(OCC2CCCN(CC(F)(F)F)C2)c1 (stereo not drawn) [Example 337, N-(4-fluoro-3-{[1-(2,2,2-trifluoroethyl)piperidin-3-yl]methoxy}phenyl)-3-methyl-5-{[5-(trifluoromethyl)pyrazin-2-yl]amino}-1,2-thiazole-4-carboxamide] | ≥ 20 | ≥ 20
5 | Cc1nsc(Nc2cnc(C(F)(F)F)cn2)c1C(=O)Nc1ccc(F)c(OCC2CCCN(CCC(F)(F)F)C2)c1 (stereo not drawn) [Example 338, N-(4-fluoro-3-{[1-(3,3,3-trifluoropropyl)piperidin-3-yl]methoxy}phenyl)-3-methyl-5-{[5-(trifluoromethyl)pyrazin-2-yl]amino}-1,2-thiazole-4-carboxamide] | ≥ 20 | ≥ 20
6 | Cc1nsc(Nc2cnc(C(F)(F)F)cn2)c1C(=O)Nc1ccc(F)c(OC[C@@H]2CCN(CCC(F)(F)F)C2)c1 [Example 340, N-(4-fluoro-3-{[(3R)-1-(3,3,3-trifluoropropyl)pyrrolidin-3-yl]methoxy}phenyl)-3-methyl-5-{[5-(trifluoromethyl)pyrazin-2-yl]amino}-1,2-thiazole-4-carboxamide] | > 20 | > 20
7 | Cc1nsc(Nc2cnc(C(F)(F)F)cn2)c1C(=O)Nc1ccc(F)c(OC[C@@H]2CCCN(CC(F)F)C2)c1 [Example 341, N-(3-{[(3R)-1-(2,2-difluoroethyl)piperidin-3-yl]methoxy}-4-fluorophenyl)-3-methyl-5-{[5-(trifluoromethyl)pyrazin-2-yl]amino}-1,2-thiazole-4-carboxamide] | > 20 | > 20
8 | Cc1nsc(Nc2cnc(C(F)(F)F)cn2)c1C(=O)Nc1ccc(F)c(OC[C@@H]2CCCN(CC(F)(F)F)C2)c1 [Example 342, N-(4-fluoro-3-{[(3R)-1-(2,2,2-trifluoroethyl)piperidin-3-yl]methoxy}phenyl)-3-methyl-5-{[5-(trifluoromethyl)pyrazin-2-yl]amino}-1,2-thiazole-4-carboxamide] | > 20 | > 20
9 | Cc1nsc(Nc2cnc(C(F)(F)F)cn2)c1C(=O)Nc1ccc(OCC2CCN(CCF)CC2)nc1 [Example 344, N-(6-{[1-(2-fluoroethyl)piperidin-4-yl]methoxy}pyridin-3-yl)-3-methyl-5-{[5-(trifluoromethyl)pyrazin-2-yl]amino}-1,2-thiazole-4-carboxamide] | ≥ 20 | ≥ 20
10 | Cc1nsc(Nc2cnc(C(F)(F)F)cn2)c1C(=O)Nc1ccc(OCC2CCN(CC(F)F)CC2)nc1 [Example 345, N-(6-{[1-(2,2-difluoroethyl)piperidin-4-yl]methoxy}pyridin-3-yl)-3-methyl-5-{[5-(trifluoromethyl)pyrazin-2-yl]amino}-1,2-thiazole-4-carboxamide] | ≥ 20 | ≥ 20
11 | Cc1nsc(Nc2cnc(C(F)(F)F)cn2)c1C(=O)Nc1ccc(OCCCN(C)CCF)nc1 [Example 352, N-(6-{3-[(2-fluoroethyl)(methyl)amino]propoxy}pyridin-3-yl)-3-methyl-5-{[5-(trifluoromethyl)pyrazin-2-yl]amino}-1,2-thiazole-4-carboxamide] | ≥ 20 | 19

More lines, now with the values ahead:

Row | IC50 (CDK2/CycE) [µM] | IC50 [1] [µM] | Structure (SMILES)
12 | ≥ 20 | ≥ 20 | Cc1nsc(Nc2cnc(C(F)(F)F)cn2)c1C(=O)Nc1ccc(OCC2CCCN(CCF)C2)nc1 (stereo not drawn) [Example 325, N-(6-{[1-(2-fluoroethyl)piperidin-3-yl]methoxy}pyridin-3-yl)-3-methyl-5-{[5-(trifluoromethyl)pyrazin-2-yl]amino}-1,2-thiazole-4-carboxamide]
13 | ≥ 20 | ≥ 20 | Cc1nsc(Nc2cnc(C(F)(F)F)cn2)c1C(=O)Nc1ccc(OCC2CCCN(CC(F)(F)F)C2)nc1 (stereo not drawn) [Example 326, 3-methyl-N-(6-{[1-(2,2,2-trifluoroethyl)piperidin-3-yl]methoxy}pyridin-3-yl)-5-{[5-(trifluoromethyl)pyrazin-2-yl]amino}-1,2-thiazole-4-carboxamide]
14 | ≥ 20 | ≥ 20 | Cc1nsc(Nc2cnc(C(F)(F)F)cn2)c1C(=O)Nc1ccc(OCC2CCCN(CCC(F)(F)F)C2)nc1 (stereo not drawn) [Example 328, 3-methyl-5-{[5-(trifluoromethyl)pyrazin-2-yl]amino}-N-(6-{[1-(3,3,3-trifluoropropyl)piperidin-3-yl]methoxy}pyridin-3-yl)-1,2-thiazole-4-carboxamide]
15 | ≥ 20 | ≥ 20 | Cc1nsc(Nc2cnc(C(F)(F)F)cn2)c1C(=O)Nc1ccc(OC2CCCN(CCF)C2)nc1 (stereo not drawn) [Example 329, N-(6-{[1-(2-fluoroethyl)piperidin-3-yl]oxy}pyridin-3-yl)-3-methyl-5-{[5-(trifluoromethyl)pyrazin-2-yl]amino}-1,2-thiazole-4-carboxamide]
16 | ≥ 20 | ≥ 20 | Cc1nsc(Nc2cnc(C(F)(F)F)cn2)c1C(=O)Nc1ccc(OC2CCCN(CC(F)(F)F)C2)nc1 (stereo not drawn) [Example 331, 3-methyl-N-(6-{[1-(2,2,2-trifluoroethyl)piperidin-3-yl]oxy}pyridin-3-yl)-5-{[5-(trifluoromethyl)pyrazin-2-yl]amino}-1,2-thiazole-4-carboxamide]
17 | ≥ 20 | ≥ 20 | Cc1nsc(Nc2cnc(C(F)(F)F)cn2)c1C(=O)Nc1ccc(OC2CCCN(CCC(F)(F)F)C2)nc1 (stereo not drawn) [Example 332, 3-methyl-5-{[5-(trifluoromethyl)pyrazin-2-yl]amino}-N-(6-{[1-(3,3,3-trifluoropropyl)piperidin-3-yl]oxy}pyridin-3-yl)-1,2-thiazole-4-carboxamide]
18 | ≥ 20 | ≥ 20 | Cc1nsc(Nc2cnc(C(F)(F)F)cn2)c1C(=O)Nc1ccc(OC2CCCN(C(CF)CF)C2)nc1 (stereo not drawn) [Example 333, N-(6-{[1-(1,3-difluoropropan-2-yl)piperidin-3-yl]oxy}pyridin-3-yl)-3-methyl-5-{[5-(trifluoromethyl)pyrazin-2-yl]amino}-1,2-thiazole-4-carboxamide]
19 | ≥ 20 | ≥ 20 | Cc1nsc(Nc2cnc(C(F)(F)F)cn2)c1C(=O)Nc1ccc(F)c(OCC2CCCN(CC(F)F)C2)c1 (stereo not drawn) [Example 334, N-(3-{[1-(2,2-difluoroethyl)piperidin-3-yl]methoxy}-4-fluorophenyl)-3-methyl-5-{[5-(trifluoromethyl)pyrazin-2-yl]amino}-1,2-thiazole-4-carboxamide]
20 | > 20 | > 20 | Cc1nsc(Nc2cnc(C(F)(F)F)cn2)c1C(=O)Nc1ccc(F)c(OC[C@@H]2CCN(CC(F)(F)F)C2)c1 [Example 339, N-(4-fluoro-3-{[(3R)-1-(2,2,2-trifluoroethyl)pyrrolidin-3-yl]methoxy}phenyl)-3-methyl-5-{[5-(trifluoromethyl)pyrazin-2-yl]amino}-1,2-thiazole-4-carboxamide]
21 | ≥ 20 | ≥ 20 | Cc1nsc(Nc2cncc(C(F)(F)F)n2)c1C(=O)Nc1ccc(F)c(OC2CCN(CCC(F)(F)F)CC2)c1 [Example 343, N-(4-fluoro-3-{[1-(3,3,3-trifluoropropyl)piperidin-4-yl]oxy}phenyl)-3-methyl-5-{[6-(trifluoromethyl)pyrazin-2-yl]amino}-1,2-thiazole-4-carboxamide]
22 | ≥ 20 | ≥ 20 | Cc1nsc(Nc2cnc(C(F)(F)F)cn2)c1C(=O)Nc1ccc(OCC2CCN(CC(F)(F)F)CC2)nc1 [Example 346, 3-methyl-N-(6-{[1-(2,2,2-trifluoroethyl)piperidin-4-yl]methoxy}pyridin-3-yl)-5-{[5-(trifluoromethyl)pyrazin-2-yl]amino}-1,2-thiazole-4-carboxamide]
23 | ≥ 20 | ≥ 20 | Cc1nsc(Nc2cnc(C(F)(F)F)cn2)c1C(=O)Nc1ccc(OCC2CCN(CCC(F)(F)F)CC2)nc1 [Example 347, 3-methyl-5-{[5-(trifluoromethyl)pyrazin-2-yl]amino}-N-(6-{[1-(3,3,3-trifluoropropyl)piperidin-4-yl]methoxy}pyridin-3-yl)-1,2-thiazole-4-carboxamide]
24 | ≥ 20 | ≥ 20 | Cc1nsc(Nc2cnc(C(F)(F)F)cn2)c1C(=O)Nc1ccc(OCCN(C)CCC(F)(F)F)nc1 [Example 351, 3-methyl-N-(6-{2-[methyl(3,3,3-trifluoropropyl)amino]ethoxy}pyridin-3-yl)-5-{[5-(trifluoromethyl)pyrazin-2-yl]amino}-1,2-thiazole-4-carboxamide]
